From PMC2631173 (Chemistry & biology, 2008) come the findings set out here.

Molecules are shown by their SMILES.

This experiment has as its target cellular retinoic acid-binding protein I (CRABP I), CPG variant (Mus musculus, UniProt P62965, R132Q). Nature of the experiment: fluorescence equilibrium titration of […] FlAsH with purified protein, […] EDT.

cellular retinoic acid-binding protein I (CRABP I), CPG variant, sequence (P62965 2-137 R132Q): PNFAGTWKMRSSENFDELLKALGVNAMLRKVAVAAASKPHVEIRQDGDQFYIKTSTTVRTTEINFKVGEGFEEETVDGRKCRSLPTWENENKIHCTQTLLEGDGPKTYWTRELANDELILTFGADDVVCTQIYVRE

Usually Kd stands for the constant that tells how readily two partners part at equilibrium. A lower Kd goes with higher affinity. As for `O=C1OC2(c3ccccc31)c1ccc(O)c([As]3SCCS3)c1Oc1c2ccc(O)c1[As]1SCCS1` [FlAsH], binding was put at a Kd of 400 nM.
